Publication PMC8968665, “Verteporfin is a substrate-selective γ-secretase inhibitor that binds the amyloid precursor protein transmembrane domain” (The Journal of Biological Chemistry, 2022)
“Also recorded” adds a separate entry of the source. Read-outs that look alike come from different tables or passages of the source.

What was measured:
[1] = system: T1, C99; assay: 2D 1H,1H-NOESY of 1:1 verteporfin:C99 mixture; assay type: binding, human; conditions: 300 μM C99 and 300 μM verteporfin, 2.5% d27-LMPG
T1 construct: the transmembrane 99 residue C-terminal (C99) domain; His tag (either the C-terminal hexa-His that is kept, or the N-terminal His of C99-NT2 removed by thrombin); made in house; host or cells: E. coli BL21DE3
Procedure: A sample was prepared containing 300 μM C99 and 300 μM Verteporfin in 2.5% d^27-LMPG (deuterated alkyl chains), 50 mM d^4-Imidazole (deuterated imidazole), 100 mM NaCl, 0.5 mM EDTA, 1 mM DSS, pH 6.5 in 85% D2O. The ^1H-^1H NOESY experiment was recorded on the 800 MHz spectrometer with a mixing time of 120 ms, relaxation delay of 2 s, 4k × 1k data acquisition matrix, using the standard Bruker pulse program (noesyphpr).

[2] = system: T1, C99; assay: Native ion mobility–mass spectrometry of C99–verteporfin mixtures; parameters: species or system human
Excerpt: IM-MS data were collected using a Synapt G2 HDMS IM-Q-ToF mass spectrometer (Waters), with a direct infusion nESI source set to positive ion mode. The instrument settings were tuned to generate intact C99–verteporfin complex ions while completely dissociating them from detergent LMPG micelles, including appropriately tuned settings for the sampling cone 80 V, trap cell accelerating potential 80 V, and the transfer cell accelerating potential 70 V. The trapping cell wave velocity and height were 116 m/s and 0.1 V, respectively. The IMS wave velocity and height were 250 m/s and 15 V, respectively. The transfer cell wave velocity and height were 300 m/s and 10 V. Prior to analysis, C99 in LMPG micelles at a protein concentration of 20 μM C99 and 100X CMC LMPG or DDMB samples were prepared by incubating 20 μM C99 with 100X CMC LMPG for 30 min, then titrating in DMSO or Verteporfin and incubating in the dark overnight. Verteporfin-binding buffer conditions were 200 mM Ammonium Acetate at pH 4.5.

[3] = molecular target: T2, γ-secretase cleavage of C100-Flag (C99) (Homo sapiens, UniProt P05067); assay: γ-Secretase assay, C100-FLAG cleavage, AICD by anti-Flag Western blot; assay type: biochemical
T2 construct: C100 is C99 with an added N-terminal Met residue; made in house
Procedure: The γ-secretase-dependent proteolysis assays with both substrates (C100-FLAG and HexaHis Notch 1 JM/TM) were performed in a weak zwitterionic detergent (CHAPSO, 3-[(3- cholamidopropyl)dimethylammonio]-2-hydroxy-1-propanesulfonate) solubilized conditions ([79], [80]). C100 is C99 with an added N-terminal Met residue. […] Proteolytic reactions were initiated by adding purified substrates (either C100-FLAG(79) or HexaHis-Notch 1 JM/TM(77)) and incubating at 37 °C (16 h for C100Flag and 4 h for HexaHis-Notch 1 JM/TM). Reactions were quenched with SDS, and the cleaved intracellular domain products (AICD-FLAG released from C100-FLAG or truncated intracellular domain (NICD) released from the proteolysis of Hexa-His Notch 1 JM/TM) were visualized by Western blot using specific primary antibodies, anti-FLAG antibody for FLAG-tagged AICD, and neoepitope-specific anti-V1744 antibody for NICD ([80], [83], [84]).

[4] = system: T3, C99 L723A; assay: TROSY NMR titration of C99 L723A mutant by verteporfin; assay type: binding, human; conditions: LMPG micelles, up to 300 µM verteporfin, n=1
T3 construct: the transmembrane 99 residue C-terminal (C99) domain; hexa-His; made in house
Procedure: A Bruker Avance III 600 MHz NMR spectrometer equipped with a cryoprobe (CPTCI) and automated sample changer (SampleJet) was used to collect NMR spectra. Sample details are described above. For high-throughput screening data collection, the ^15N-^1H BEST-TROSY (b_trosy3gpph.2) experiment with 64 scans for each of 96 increments and a relaxation delay of 200 ms was run at 318 K for a total data acquisition time of 35 min per sample. To achieve enhanced signal-to-noise ratio, follow-up titrations and control experiments were conducted using the BEST-TROSY pulse program with 200 scans per 96 increments at 318 K, for a total data acquisition time of 110 min per sample. Data were processed using Bruker Topspin 3.6 using a Gaussian window function with a line broadening of -10 and a Gaussian max of 0.1 in both dimensions. NMR data were then further processed and analyzed using NMR-FAM SPARKY, plotted using GraphPad Prism 9, and prepared for publication figures using Affinity Designer.

T2 sequence (P05067 672-770 limits assumed): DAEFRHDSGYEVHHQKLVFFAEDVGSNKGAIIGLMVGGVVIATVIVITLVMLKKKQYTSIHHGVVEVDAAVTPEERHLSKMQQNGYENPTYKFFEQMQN

verteporfin
direct intermolecular contact with C99 (NOESY cross-peaks) [1]: confirms direct binding | change in C99 oligomeric state (IM-MS) ([2]; LMPG and DDMB micelles, 0–50 μM verteporfin, low detergent conditions, n = 3): only a marginal increase in the population of dimeric C99; also recorded: does not undergo any significant change in oligomeric state | covalent modification of C99 (mass by IM-MS) ([2]; samples kept in the dark): no covalent modification | IC50 ([3]; 30 nM purified γ-secretase, C100-Flag, 16 h, 37 °C, n = 3, read-out: IC50, inhibition of AICD production): 164 ± 45 µM | degree of inhibition of C99 cleavage at saturating verteporfin ([3]; 30 nM γ-secretase): approximately 75% | C100-Flag cleavage efficiency (Western blot) ([3]; 100 µM verteporfin, 2 µM C100-Flag, 1 nM γ-secretase, Fig. S6A): greatly reduced | IC50 ([3]; depending on assay conditions (1 nM to 30 nM enzyme), read-out: IC50 range for γ-secretase cleavage of C99): 15 to 164 µM | binding to C99 L723A [4]: nearly complete lack of binding; also recorded: binding was disrupted
